From ChEMBL document CHEMBL6087474, “Discovery of an Efficacious RET PROTAC Degrader with Enhanced Antiproliferative Activity against Resistant Cancer Cells Harboring RET Solvent-Front Mutations” (J Med Chem, 2025)
pIC50: −log10 of the molar value. Active and inactive are the calls of the source. No cut-off for these calls is given here.

Tests used:
[1] = Induction of apoptosis in mouse BaF3 cells stably expressing KIF5B-RET-G810C mutant assessed as early apoptotic cells at 300 nM measured after 48 hrs by Annexin V-FITC/7-AAD staining based flow cytometric analysis (reference value: 8.57 %); type: functional
[2] = Induction of apoptosis in mouse BaF3 cells stably expressing KIF5B-RET-G810C mutant assessed as necrotic cells at 300 nM measured after 48 hrs by Annexin V-FITC/7-AAD staining based flow cytometric analysis (reference value: 2.89 %); type: functional
[3] = Induction of apoptosis in mouse BaF3 cells stably expressing wildtype KIF5B-RET fusion protein assessed as late apoptotic cells at 11.1 nM measured after 48 hrs by Annexin V-FITC/7-AAD staining based flow cytometric analysis (reference value: 1.03 %); type: functional
BaF3 [4] = assay: Inhibition of Shc (unknown origin) phosphorylation in mouse BaF3 cells stably expression KIF5B-RET G810R mutant at 333.3 to 3000 nM measured after 6 hrs by Western blot analysis; type: cell-based; settings: Homo sapiens, dose 333.3-3000 nM
[5] = Induction of apoptosis in mouse BaF3 cells stably expressing wildtype KIF5B-RET fusion protein assessed as necrotic cells at 33.3 nM measured after 48 hrs by Annexin V-FITC/7-AAD staining based flow cytometric analysis (reference value: 2.40 %); type: functional
[6] = PROTAC activity at CRBN/KIF5B-RET-G810R mutant (unknown origin) expressed in mouse BaF3 cells assessed as induction of RET degradation measured after 6 hrs by Western blot analysis; type: cell-based; settings: BaF3, 6 h
BaF3 [7] = assay: Antiproliferative activity against mouse BaF3 cells stably expressing KIF5B-RET-V804L mutant incubated for 72 hrs by CCK-8 assay; type: functional, cell-based; settings: BaF3, 72 h
BaF3 [8] = assay: PROTAC activity at CRBN/KIF5B-RET (unknown origin) expressed in mouse BaF3 cells assessed as induction of RET degradation at 100 nM measured after 6 hrs by Western blot analysis relative to control; type: cell-based
[9] = Induction of apoptosis in mouse BaF3 cells stably expressing wildtype KIF5B-RET fusion protein assessed as necrotic cells at 300 nM measured after 48 hrs by Annexin V-FITC/7-AAD staining based flow cytometric analysis (reference value: 2.40 %); type: functional
[10] = target: Protein cereblon/Proto-oncogene tyrosine-protein kinase receptor Ret/Kinesin-1 heavy chain (Homo sapiens) (UniProt P07949+P33176+Q96SW2); assay: PROTAC activity at CRBN/KIF5B-RET in human LC-2-ad cells assessed as induction of RET degradation at 11.1 nM measured after 6 hrs by Western blotting analysis relative to control; type: cell-based
Chain of Protein cereblon/Proto-oncogene tyrosine-protein kinase receptor Ret/Kinesin-1 heavy chain (Homo sapiens) (P07949 whole entry, looked up): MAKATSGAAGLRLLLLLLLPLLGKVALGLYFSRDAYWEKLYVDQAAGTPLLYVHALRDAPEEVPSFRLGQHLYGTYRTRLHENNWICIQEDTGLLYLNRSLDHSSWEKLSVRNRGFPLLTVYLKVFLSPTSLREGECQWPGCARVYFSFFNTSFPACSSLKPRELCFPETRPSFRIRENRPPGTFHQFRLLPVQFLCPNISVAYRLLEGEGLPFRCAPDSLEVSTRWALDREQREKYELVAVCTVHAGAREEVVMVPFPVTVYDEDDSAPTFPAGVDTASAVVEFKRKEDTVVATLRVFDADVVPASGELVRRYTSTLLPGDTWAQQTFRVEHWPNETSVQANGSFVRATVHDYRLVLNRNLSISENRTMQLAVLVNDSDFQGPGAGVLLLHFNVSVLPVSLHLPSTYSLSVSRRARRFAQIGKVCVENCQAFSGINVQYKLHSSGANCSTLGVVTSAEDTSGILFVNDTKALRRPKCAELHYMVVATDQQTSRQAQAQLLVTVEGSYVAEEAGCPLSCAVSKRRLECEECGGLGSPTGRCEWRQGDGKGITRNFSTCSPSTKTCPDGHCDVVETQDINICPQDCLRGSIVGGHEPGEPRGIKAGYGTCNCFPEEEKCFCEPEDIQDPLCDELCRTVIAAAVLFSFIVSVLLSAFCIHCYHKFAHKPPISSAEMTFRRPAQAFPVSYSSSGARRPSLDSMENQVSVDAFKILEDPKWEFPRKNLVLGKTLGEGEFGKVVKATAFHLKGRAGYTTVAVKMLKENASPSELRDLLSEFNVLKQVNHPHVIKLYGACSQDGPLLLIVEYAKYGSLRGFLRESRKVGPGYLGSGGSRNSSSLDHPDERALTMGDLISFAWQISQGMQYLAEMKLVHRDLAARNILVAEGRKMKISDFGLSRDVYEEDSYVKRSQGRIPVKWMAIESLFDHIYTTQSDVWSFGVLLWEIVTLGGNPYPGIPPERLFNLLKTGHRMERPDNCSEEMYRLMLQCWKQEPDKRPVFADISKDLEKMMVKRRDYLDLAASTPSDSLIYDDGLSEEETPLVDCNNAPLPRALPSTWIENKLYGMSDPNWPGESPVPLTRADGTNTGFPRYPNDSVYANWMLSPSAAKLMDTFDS
Chain of Protein cereblon/Proto-oncogene tyrosine-protein kinase receptor Ret/Kinesin-1 heavy chain (Homo sapiens) (P33176 whole entry, looked up): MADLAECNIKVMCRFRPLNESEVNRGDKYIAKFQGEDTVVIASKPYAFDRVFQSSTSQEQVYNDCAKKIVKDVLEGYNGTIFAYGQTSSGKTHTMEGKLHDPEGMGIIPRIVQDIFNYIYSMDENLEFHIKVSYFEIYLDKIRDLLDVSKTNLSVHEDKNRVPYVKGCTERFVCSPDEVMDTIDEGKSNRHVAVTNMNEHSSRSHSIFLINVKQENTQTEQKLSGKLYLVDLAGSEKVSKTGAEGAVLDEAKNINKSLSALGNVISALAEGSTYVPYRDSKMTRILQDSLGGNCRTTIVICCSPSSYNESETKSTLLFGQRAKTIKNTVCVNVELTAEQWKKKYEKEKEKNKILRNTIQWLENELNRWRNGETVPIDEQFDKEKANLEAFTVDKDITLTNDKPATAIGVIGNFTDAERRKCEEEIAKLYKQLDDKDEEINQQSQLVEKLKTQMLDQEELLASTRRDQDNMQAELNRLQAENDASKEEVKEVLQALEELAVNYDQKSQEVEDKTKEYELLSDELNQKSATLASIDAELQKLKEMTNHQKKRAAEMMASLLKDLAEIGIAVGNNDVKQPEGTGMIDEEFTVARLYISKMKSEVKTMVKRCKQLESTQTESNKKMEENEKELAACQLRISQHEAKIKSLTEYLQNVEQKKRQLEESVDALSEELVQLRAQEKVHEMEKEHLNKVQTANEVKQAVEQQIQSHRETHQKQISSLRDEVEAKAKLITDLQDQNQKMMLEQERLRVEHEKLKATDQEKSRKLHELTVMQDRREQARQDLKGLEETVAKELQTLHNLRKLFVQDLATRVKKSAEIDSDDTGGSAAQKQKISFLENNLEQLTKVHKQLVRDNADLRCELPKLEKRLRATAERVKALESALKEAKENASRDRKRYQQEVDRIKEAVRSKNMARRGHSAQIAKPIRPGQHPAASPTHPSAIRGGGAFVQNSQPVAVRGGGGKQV
Chain of Protein cereblon/Proto-oncogene tyrosine-protein kinase receptor Ret/Kinesin-1 heavy chain (Homo sapiens) (Q96SW2 whole entry, looked up): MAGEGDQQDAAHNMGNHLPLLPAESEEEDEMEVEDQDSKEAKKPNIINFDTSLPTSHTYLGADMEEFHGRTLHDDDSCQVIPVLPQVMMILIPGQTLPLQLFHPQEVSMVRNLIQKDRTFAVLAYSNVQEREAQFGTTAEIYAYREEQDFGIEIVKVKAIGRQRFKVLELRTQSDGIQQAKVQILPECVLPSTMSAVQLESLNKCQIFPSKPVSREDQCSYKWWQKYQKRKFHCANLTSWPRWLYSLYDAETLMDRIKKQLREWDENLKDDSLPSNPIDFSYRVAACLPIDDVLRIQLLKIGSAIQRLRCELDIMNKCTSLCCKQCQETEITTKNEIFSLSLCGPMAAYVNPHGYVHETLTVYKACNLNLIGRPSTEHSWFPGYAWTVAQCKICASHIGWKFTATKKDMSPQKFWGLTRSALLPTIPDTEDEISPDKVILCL

[11] = Bioavailability in male ICR mouse at 10 mg/kg, ip measured after 24 hrs by LC-MS/MS analysis; type: ADME, organism-based; settings: in vivo
[12] = Potency index, ratio of selpercatinib IC50 to test compound IC50 for antiproliferative activity against mouse BaF3 cells stably expressing KIF5B-RET-G810S mutant incubated for 72 hrs by CCK-8 assay; type: functional
[13] = Induction of apoptosis in mouse BaF3 cells stably expressing KIF5B-RET-G810C mutant assessed as viable cells at 100 nM measured after 48 hrs by Annexin V-FITC/7-AAD staining based flow cytometric analysis (reference value: 86.58 %); type: functional; settings: read-out: Activity
BaF3 [14] = assay: Antiproliferative activity against mouse BaF3 cells stably expressing CCDC6-RET-V804M mutant incubated for 72 hrs by CCK-8 assay; type: functional, cell-based; settings: BaF3, 72 h
[15] = Induction of apoptosis in mouse BaF3 cells stably expressing wildtype KIF5B-RET fusion protein assessed as late apoptotic cells at 100 nM measured after 48 hrs by Annexin V-FITC/7-AAD staining based flow cytometric analysis (reference value: 1.03 %); type: functional
[16] = Induction of apoptosis in mouse BaF3 cells stably expressing wildtype KIF5B-RET fusion protein assessed as late apoptotic cells at 300 nM measured after 48 hrs by Annexin V-FITC/7-AAD staining based flow cytometric analysis (reference value: 1.03 %); type: functional
[17] = Effect on RET protein level in mouse BaF3 cells stably expressing wildtype KIF5B-RET assessed as fold change at 300 nM measured after 6 hrs by Western blot analysis (reference value: 1); type: functional
[18] = Effect on RET protein level in mouse BaF3 cells stably expressing wildtype KIF5B-RET assessed as fold change at 11.1 nM measured after 6 hrs by Western blot analysis (reference value: 1); type: functional
[19] = Induction of apoptosis in mouse BaF3 cells stably expressing wildtype KIF5B-RET fusion protein assessed as late apoptotic cells at 33.3 nM measured after 48 hrs by Annexin V-FITC/7-AAD staining based flow cytometric analysis (reference value: 1.03 %); type: functional
BaF3 [20] = assay: Inhibition of RET (unknown origin) phosphorylation in mouse BaF3 cells stably expressing KIF5B-RET-G810R mutant at 333.3 to 3000 nM measured after 6 hrs by Western blot analysis; type: cell-based; settings: Homo sapiens, dose 333.3-3000 nM
[21] = Induction of apoptosis in mouse BaF3 cells stably expressing wildtype KIF5B-RET fusion protein assessed as viable cells at 100 nM measured after 48 hrs by Annexin V-FITC/7-AAD staining based flow cytometric analysis (reference value: 86.65 %); type: functional; settings: read-out: Activity
BaF3 [22] = assay: PROTAC activity at CRBN/IKZF1 in mouse BaF3 cells overexpressing KIF5B-RET assessed as induction of […] at 10 to 1000 nM incubated for 6 hrs by Western blot analysis; type: cell-based; settings: dose 10-1000 nM
[23] = Induction of apoptosis in mouse BaF3 cells stably expressing KIF5B-RET-G810C mutant assessed as late apoptotic cells at 300 nM measured after 48 hrs by Annexin V-FITC/7-AAD staining based flow cytometric analysis (reference value: 1.96 %); type: functional
[24] = Effect on Shc protein level in mouse BaF3 cells stably expressing wildtype KIF5B-RET assessed as fold change at 33.3 nM measured after 6 hrs by Western blot analysis; type: functional
BaF3 [25] = assay: PROTAC activity at CRBN/KIF5B-RET (unknown origin) expressed in mouse BaF3 cells assessed as induction of RET degradation at 10 nM measured after 6 hrs by Western blot analysis relative to control; type: cell-based
[26] = Toxicity in male BALB/c mouse model implanted with mouse BaF3 cells stably expressing KIF5B-RET-G810C mutant assessed as body weight loss at 10 to 30 mg/kg, ip administered daily for 14 days; type: organism-based; settings: in vivo, 336 h, dose 10-30 mg/kg, time 14 day
[27] = Effect on RET protein level in mouse BaF3 cells stably expressing KIF5B-RET-G810C mutant assessed as fold change at 33.3 nM measured after 6 hrs by Western blot analysis (reference value: 1); type: functional
[28] = Induction of apoptosis in mouse BaF3 cells stably expressing KIF5B-RET-G810C mutant assessed as necrotic cells at 900 nM measured after 48 hrs by Annexin V-FITC/7-AAD staining based flow cytometric analysis (reference value: 2.89 %); type: functional

## COc1ccc(CN2C3CC2CN(c2ccc(-c4cc(-c5cnn(C6CCN(CCCCCC#Cc7cccc8c7CN(C7CCC(=O)NC7=O)C8=O)CC6)c5)cn5ncc(C#N)c45)cn2)C3)cn1 (stereo not drawn)
[1]
  Activity: 31.81%
[2]
  Activity: 2.15%
[3]
  Activity: 1.84%
BaF3 [4]
  inhibition: Active
[5]
  Activity: 1.79%
[6]
  DC50: > 300 nM
BaF3 [7]
  pIC50: 7.30
BaF3 [8]
  Activity: 73%
[9]
  Activity: 0.42%
[10]
  Activity: 61.6%
[11]
  bioavailability: 17.3%
[12]
  Ratio IC50: 6.3
[13]
  viability at 0.1 µM: 75.4%
BaF3 [14]
  pIC50: 8.00
[15]
  Activity: 0.99%
[16]
  Activity: 1%
[17]
  fold change (FC): 0.2
[18]
  fold change (FC): 0.5
[19]
  Activity: 3.02%
BaF3 [20]
  inhibition: Active
[21]
  viability at 0.1 µM: 64.9%
BaF3 [22]
  Activity: inactive
[23]
  Activity: 2.91%
[24]
  fold change (FC): 1
BaF3 [25]
  Activity: 60%
[26]
  Activity: Non-toxic
[27]
  fold change (FC): 0.6
[28]
  Activity: 1.26%
